Test results taken from patent publication US7923465B2, “Cannabinoid receptor ligands, pharmaceutical compositions containing them, and process for their preparation” (priority 2005, dated 2011).
Like-named read-outs stand apart in the source and are kept apart here.

Legend:
CB1 = CB1 (Rattus norvegicus, UniProt P20272); assay: Rat CB1 receptor binding using brain membrane, [3H]SR141716A displacement (Protocol I); set-up: CB1 receptor present in a rat brain membrane preparation; from tissue; host or cells: rat brain membrane; inhibition: dose or concentration left out as unconfirmed; conditions: for inhibition: 1 h
hCB2 [1] = molecular target: T1, hCB2 (Homo sapiens, UniProt P34972); assay: In vitro binding assay using hCB2-CHO membranes, [3H]-CP-55,940 displacement (Protocol IV); set-up: expressed in transfected cells; host or cells: CHO (hCB2-CHO, generated in-house); conditions: for inhibition at 0.3 µM: 1 h, read-out: % Displacement Protocol IV
In short: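 Compounds were tested at a single 300 nM final concentration for displacing 0.75 nM [3H]-CP-55,940 from hCB2-CHO membranes (1 h, 30 °C, 50 mM Tris pH 7.4, 5 mM MgCl2, 1 mM EDTA, 0.1% BSA). Filter-bound radioactivity was counted, with 0.5 μM unlabelled CP-55,940 for nonspecific binding; results are % displacement.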

hCB2 [2] = molecular target: T1, hCB2; assay: Antagonism of CB2 receptors expressed in CHO cells, cAMP assay against CP 55,940 (Protocol IX.1); format: cell-based; set-up: expressed in transfected cells; host or cells: CHO (h-CB2/CHO, G418-selected); conditions: CHO, h-CB2/CHO cells, vs 10 nM CP 55,940
In short: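 h-CB2/CHO cells in Krebs buffer with 0.1% FAF-BSA and 1 mM IBMX were pre-incubated 10 min with antagonist, then stimulated 30 min at room temperature with 10 nM CP 55,940 plus 10 μM forskolin. cAMP quantified by chemiluminescence; values from nonlinear regression of dose–response curves.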

hCB2 [3] = molecular target: T1, hCB2; assay: Agonism of CB2 receptors expressed in CHO cells, forskolin cAMP assay (Protocol IX.2); format: cell-based; set-up: expressed in transfected cells; host or cells: CHO (h-CB2/CHO, G418-selected); conditions: cAMP
In short: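 CHO cells expressing h-CB2 were treated with compound in Krebs buffer with 0.1% FAF BSA and 1 mM IBMX, plus 10 uM forskolin, for 30 minutes at room temperature. cAMP in lysates was measured by chemiluminescence. EC50 was derived by nonlinear regression of dose–response curves, with CP 55,940 at 10 μM as reference for CB2.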

[4] = hCB2-CHO membranes, [3H]-CP-55,940 displacement
[5] = rat brain membrane, [3H]SR141716A displacement, read-out: % Displacement Protocol I
[6] = hCB2 Agonism IC50, h-CB2/CHO cells

Chain of CB1 (P20272 whole entry): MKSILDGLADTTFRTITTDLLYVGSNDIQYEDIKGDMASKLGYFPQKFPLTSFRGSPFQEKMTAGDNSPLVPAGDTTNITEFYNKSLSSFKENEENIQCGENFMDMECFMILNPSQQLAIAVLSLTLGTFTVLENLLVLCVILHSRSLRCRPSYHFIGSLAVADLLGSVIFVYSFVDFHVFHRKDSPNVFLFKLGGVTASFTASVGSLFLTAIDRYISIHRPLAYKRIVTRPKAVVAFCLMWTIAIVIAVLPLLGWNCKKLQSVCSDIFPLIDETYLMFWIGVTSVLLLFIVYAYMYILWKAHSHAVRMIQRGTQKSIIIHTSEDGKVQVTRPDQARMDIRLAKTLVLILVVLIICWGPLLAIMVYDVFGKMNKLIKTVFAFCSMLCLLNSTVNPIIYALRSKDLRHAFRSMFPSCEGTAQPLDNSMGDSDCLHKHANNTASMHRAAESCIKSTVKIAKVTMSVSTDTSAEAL
T1 sequence (P34972 whole entry): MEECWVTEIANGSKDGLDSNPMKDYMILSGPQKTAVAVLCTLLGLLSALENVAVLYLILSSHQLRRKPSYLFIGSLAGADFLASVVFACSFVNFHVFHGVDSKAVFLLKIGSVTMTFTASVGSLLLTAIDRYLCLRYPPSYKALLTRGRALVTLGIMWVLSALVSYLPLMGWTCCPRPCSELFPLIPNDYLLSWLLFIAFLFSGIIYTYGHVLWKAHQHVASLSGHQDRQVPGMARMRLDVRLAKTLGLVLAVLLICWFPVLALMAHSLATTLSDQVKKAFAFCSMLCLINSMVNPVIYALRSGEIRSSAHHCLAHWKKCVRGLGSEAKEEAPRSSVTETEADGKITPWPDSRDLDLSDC

Structure (SMILES) | % Displacement Protocol I (CB1; rat brain membrane, [3H]SR141716A displacement) [%] | % Displacement Protocol IV (hCB2 [1]; [4]) [%] | inhibition (CB1; [5]) [%] | inhibition at 10 µM (hCB2 [2]) [%] | inhibition at 0.3 µM (hCB2 [1]; [4]) [%] | IC50 (hCB2 [3]; [6]) [nM] | inhibition (CB1; read-out: % Displacement Protocol I, rat brain membrane, [3H]SR141716A displacement) [%] | inhibition at 0.3 µM (hCB2 [1]) [%] | IC50 (hCB2 [3]; h-CB2/CHO cells, read-out: hCB2 Agonism IC50) [nM]
O=C(NN1CCCCC1)c1nn(-c2ccc(Cl)cc2)c2c1C1CC3CC(C1)CC2C3 [Example 140, N(7)-Piperidino-5-(4′-chlorophenyl)-5,6-diazatetracyclo[7.3.1.1^3,11.0^4,8]tetradeca-4(8)-6-diene-7-carboxamide] | 50.4 | 15.79 |  |  |  |  |  |  | 
CN(NC(=O)c1nn(-c2ccc(Cl)cc2)c2c1C1CCC2C1)C1CCCCC1 (stereo not drawn) [Example 213, N(3)-[(N-Cyclohexyl-N-methyl)amino]-1-(4-chlorophenyl)-4,5,6,7-tetrahydro-1H-4,7-methano-indazole-3-carboxamide] |  |  | 48.5 | 22.1 | 71.8 | 12.7 |  |  | 
O=C(NCc1ccccc1Cl)c1nn(-c2ccc(Cl)cc2)c2c1C1CCC2C1 (stereo not drawn) [Example 221, N(3)-(2-Chlorobenzyl)-1-(4-chlorophenyl)-4,5,6,7-tetrahydro-1H-4,7-methano-indazole-3-carboxamide] |  |  |  | 30.1 |  |  | 68.6 | 75.7 | 36.4
O=C(NCc1ccc(Cl)cc1Cl)c1nn(-c2ccc(Cl)cc2Cl)c2c1C1CCC2C1 (stereo not drawn) [Example 251, N(3)-(2,4-Dichlorobenzyl)-1-(2,4-dichlorophenyl)-4,5,6,7-tetrahydro-1H-4,7-methano-indazole-3-carboxamide] |  |  | 42.3 | 40.8 | 60.2 | 40.2 |  |  | 
O=C(NNc1ccccc1Cl)c1nn(-c2ccc(Cl)cc2Cl)c2c1C1CCC2C1 (stereo not drawn) [Example 257, N(3)-[(2-Chlorophenyl)amino]-1-(2,4-dichlorophenyl)-4,5,6,7-tetrahydro-1H-4,7-methano-indazole-3-carboxamide] |  |  | 73.5 | 37.5 | 83.9 | 3.7 |  |  | 
O=C(NNc1ccc(Cl)cc1Cl)c1nn(-c2ccc(Cl)cc2Cl)c2c1C1CCC2C1 (stereo not drawn) [Example 260, N(3)-[(2,4-Dichlorophenyl)amino]-1-(2,4-dichlorophenyl)-4,5,6,7-tetrahydro-1H-4,7-methano-indazole-3-carboxamide] |  |  | 84.4 | 34.8 | 80.2 | 4.1 |  |  | 
O=C(NNc1ccccc1Br)c1nn(-c2ccc(Cl)cc2Cl)c2c1C1CCC2C1 (stereo not drawn) [Example 263, N(3)-[(2-Bromophenyl)amino]-1-(2,4-dichlorophenyl)-4,5,6,7-tetrahydro-1H-4,7-methano-indazole-3-carboxamide] |  |  | 69.1 | 27.1 | 79 | 2.5 |  |  | 
O=C(NC1CCCCC1)c1nn(-c2ccc(Br)cc2)c2c1C1CCC2C1 (stereo not drawn) [Example 275, N(3)-Cyclohexyl-1-(4-bromophenyl)-4,5,6,7-tetrahydro-1H-4,7-methano-indazole-3-carboxamide] |  |  | 38.8 | 19.1 | 72.3 | 4.49 |  |  | 
